Numbered stars: 1 amine (or outer) side, 2 acyl side, 3 side chain; on linkers, the order of the positions; unused ones are H or OH. Bridge positions count the residues as written; N and C are the ends. Square brackets hold non-standard residues; d marks the D form. Peptide text beside a SMILES is read from it. * marks the point of attachment. hTyr(3S-OH,4S-OH,3'-OSO3H) = N[C@H](C(=O)O)[C@H](O)[C@@H](O)c1ccc(O)c(OS(=O)(=O)O)c1; Orn(4R-OH,5R-OH) = O=C([C@H](C[C@@H](O)[C@@H](O)N[*:3])N[*:1])[*:2]; Pro(3S-OH,4S-Me) = C[C@H]1CN[C@H](C(=O)O)[C@H]1O; X1 = CCCCCOc1ccc(-c2cc(-c3ccc(C(=O)*)cc3)no2)cc1; Gln(3R-OH) = NC(=O)C[C@@H](O)[C@H](N)C(=O)O; Hyp = O=C(O)[C@@H]1C[C@@H](O)CN1
Tested on: C. auris
Design: species or system mice
Conditions: mouse, in vivo

CCCCCOc1ccc(-c2cc(-c3ccc(C(=O)N[C@H]4C[C@@H](O)[C@@H](O)NC(=O)[C@@H]5[C@@H](O)[C@@H](C)CN5C(=O)[C@H]([C@H](O)CC(N)=O)NC(=O)[C@H]([C@H](O)[C@@H](O)c5ccc(O)c(OS(=O)(=O)O)c5)NC(=O)[C@@H]5C[C@@H](O)CN5C(=O)[C@H]([C@@H](C)O)NC4=O)cc3)no2)cc1 [micafungin] (X1-[Orn(4R-OH,5R-OH)]T[Hyp][hTyr(3S-OH,4S-OH,3'-OSO3H)][Gln(3R-OH)][Pro(3S-OH,4S-Me)]; lactam 1-C)
survival: 20%
